pIC50: −log10 of the molar value.
Experiments:
Solubility in methanol = type: physicochemical
[1] = DPPH radical scavenging assay; conditions: 0.2 mM DPPH in absolute ethanol, dark, room temperature, 30 minutes, absorbance at 517 nm; read-out: IC50 value against DPPH radicals
Method: DPPH is a stable free radical. When a free radical scavenger is present, light absorption of DPPH will be reduced when the single electron is scavenged, which allows to evaluate free radical scavenging ability of the substance and accordingly determine antioxidant ability thereof. The DPPH radical scavenging ability of the compound 2,2′,4,4′-tetrahydroxy-3-(2″-hydroxy-3″-methylbutyl-3″-alkenyl)chalcone was measured through the DPPH radical scavenging assay, so as to evaluate the antioxidant ability of the compound. The assay comprised the following steps:
1,1-Diphenyl-2-picrylhydrazyl (DPPH) was dissolved in absolute ethanol to obtain a solution with a concentration of 0.2 mM. The compound 2,2′,4,4′-tetrahydroxy-3-(2″-hydroxy-3″-methylbutyl-3″-alkenyl)chalcone was dissolved in absolute ethanol. 80 μL of the ethanol solution of 2,2′,4,4′-tetrahydroxy-3-(2″-hydroxy-3″-methylbutyl-3″-alkenyl)chalcone and 160 μL of the 0.2 mM DPPH ethanol solution were mixed and the mixture was placed in dark at room temperature for 30 minutes. Then, light absorbance at 517 nm was measured using a microplate reader (SpectraMax 190, Molecular Devices, USA).

In the case of C=C(C)C(O)Cc1c(O)ccc(C(=O)/C=C/c2ccc(O)cc2O)c1O (centres unmarked) [compound 1, 2,2′,4,4′-tetrahydroxy-3-(2″-hydroxy-3″-methylbutyl-3″-alkenyl)chalcone], the solubility in methanol (Solubility in methanol) was “easily soluble in methanol” and the pIC50 [1] was 4.67.

— patent US11186533B2, “Chalcone compound and preparation method thereof” (SOUTH CHINA BOTANICAL GARDEN, CHINESE ACADEMY OF SCIENCES, priority 2018, dated 2021)
